Test results published in patent US11566049B2, “Cyclic peptides and uses thereof” (LATERAL IP PTY LTD, priority 2018, dated 2023).
Several values for one entry are separate records, joined by “and”; a condition that tells them apart may be missing. Equal entries are not always repeated. Entries after “also recorded” stand apart in the source; their conditions may differ.

Tested on: dorsal horn neurons
Assay: whole-cell recording of dorsal horn neurons in spinal cord slices from Chung models (Example 4)
Assay type: cell-based, rat
Details: 1 μM; for Input Resistance, mean in presence of peptide / Membrane Potential, mean in presence of peptide: all cells; for Normalised Input Resistance / Normalised Input Resistance ΔIR: control = 100; for effect on membrane potential and activity of dorsal horn neurons: ipsilateral to injury; for Normalised Membrane Potential / Normalised Membrane Potential ΔVm: rest = 100; for ΔIR, change in neuronal input resistance: vs control, in table positive = reduction, negative = increase; for ΔVm, change in membrane potential: vs rest, in table positive = hyperpolarisation, negative = depolarisation; for reversal potential of induced response (VI plots intersect): single cells
Procedure: Adult male Sprague-Dawley rats, weighing 220-250 g (aged/weeks and older) at the time of surgery, were used in this study. They were housed in groups of 4, in an air-conditioned room, on a 12-hour light/dark cycle with food and water available ad libitum. All experiments were performed in accordance with the U.K. Animals (Scientific Procedures) Act (1986).
The animals were housed in groups of 4 in an air-conditioned room on a 12-hour light/dark cycle. Food and water were available ad libitum. They were allowed to acclimatise to the environment for experiments for three days by leaving them on a raised metal mesh for at least 40 min. The baseline paw withdrawal threshold (PWT) was examined using a series of graduated von Frey hairs (see below) for 3 consecutive days before surgery and re-assessed on the 6th to 8th day after surgery and on the 12th to 14th day after surgery before drug dosing.
Each rat was anaesthetized with 5% isoflurane mixed with oxygen (2 L per min) followed by an intramuscular (i.m.) injection of ketamine 90 mg/kg plus xylazine 10 mg/kg. The back was shaved and sterilized with povidone-iodine. The animal was placed in a prone position and a para-medial incision was made on the skin covering the L4-6 level. The L5 spinal nerve was carefully isolated and tightly ligated with 6/0 silk suture. The wound was then closed in layers after a complete haemostasis. A single dose of antibiotics (Amoxipen, 15 mg/rat, i.p.) was routinely given for prevention of infection after surgery. The animals were placed in a temperature-controlled recovery chamber until fully awake before being returned to their home cages.
LAT9993 LoopS (SEQ ID NO:28), SEQ11+LAT9993 Loop (SEQ ID NO:32; […]), SEQ25+LAT9993 Loop (SEQ ID NO:33; […]), LAT9993 SLoop A4 (SEQ ID NO:30), LAT9993 SLoop A7 (SEQ ID NO:31), LAT9993 SLoop A9 (SEQ ID NO:34; SCRSRPVEASC) and LAT9993 SLoop A10 (SEQ ID NO:35; SCRSRPVESAC), were solubilised in distilled water and made up as concentrated stocks and stored frozen until the day of experiment when they were diluted to the required test concentrations in artificial cerebrospinal fluid (aCSF), as described in Example 3, above.
Ten to fourteen days after surgery, animals were placed in individual Perspex boxes on a raised metal mesh for at least 40 minutes prior to PWT testing. Starting with the filament of lowest force (1 g), each filament was applied perpendicularly to the centre of the ventral surface of the paw until slightly bent for 6 seconds. If the animal withdrew or lifted its paw upon stimulation, a von Frey hair with force immediately lower than that tested was subsequently used. If no response was observed, then a hair with force immediately higher was tested. The lowest amount of force required to induce reliable responses (positive in 2 out of 3 trials) was recorded as the value of PWT. Only animals showing significant mechanical allodynia (PWT≤3.5 g) were selected for subsequent electrophysiological experiments (see FIG. 5).
Once validation of a neuropathic state had been confirmed, animals were terminally anesthetized using isoflurane (Norvartis Animal Health UK Ltd.), cervically dislocated and decapitated. A laminectomy was performed and the spinal cord, with spinal roots and DRG attached, removed and cut into 250-450 μm thick slices using a Leica VT1000S vibrating microtome (Leica Microsystems UK, Milton Keynes, United Kingdom). Slices were maintained in artificial cerebrospinal fluid (aCSF) at room temperature for 1 hr after slicing before recording. For recording, individual slices were held between two grids in a custom-built chamber continuously perfused with aCSF at a rate of 4-10 ml.min^−1, illuminated from below, and viewed under a dissection microscope. The aCSF was of the following composition (mM): NaCl, 127; KCl, 1.9; KH2PO4, 1.2; CaCl2, 2.4; MgCl2, 1.3; NaHCO3, 26; D-glucose, 10; equilibrated with 95% O2-5% CO2. […]

[1] = listed as SEQ 11 + LAT9993 Loop

Row | Sequence | dorsal root afferent-mediated EPSPs / synaptic inputs (words) | Input Resistance, mean in presence of peptide | Membrane Potential, mean in presence of peptide | Normalised Input Resistance | Normalised Input Resistance ΔIR | effect on membrane potential and activity of dorsal horn neurons | Normalised Membrane Potential | Normalised Membrane Potential ΔVm | ΔIR, change in neuronal input resistance | ΔVm, change in membrane potential | reversal potential of induced response (VI plots intersect) | also measured
1 | CRSRPVESSCSSKFSWDEYEQYKKE (listed as Homo sapiens) [SEQ25+LAT9993 Loop, peptide variant of formula (I)] | suppressed dorsal root-evoked excitatory posts-synaptic potentials (EPSPs) in one neurone; also recorded: suppressed dorsal root afferent-mediated synaptic inputs; also recorded: partly suppressed | 339.6±97.6 MΩ | −49.1±3.0 mV | 101.7 | −1.7 | induced inhibition of spontaneous activity and suppressed an after-depolarising potential; also recorded: slight depolarisation of the membrane potential | 93.7 | 6.3 | 1.4±18.2 MΩ | 3.4±0.9 mV |  | Input Resistance, mean in presence of peptide (listed as SEQ25 + LAT9993 Loop): 339.6 MΩ; Membrane Potential, mean in presence of peptide (listed as SEQ25 + LAT9993 Loop): −49.1 mV; ΔIR, change in neuronal input resistance (listed as SEQ25 + LAT9993 Loop): −1.4 MΩ; ΔVm, change in membrane potential (listed as SEQ25 + LAT9993 Loop): −3.4 mV
2 | IDPSSEAPGHSCRSRPVESSC (listed as Homo sapiens) [SEQ11+LAT9993 Loop, peptide variant of formula (I)] | little effect; also recorded: No obvious effect | 338.1±103.7 MΩ | −52.3±9.8 mV | 85.6 | 14.4 | membrane hyperpolarisation and inhibition of activity in 2 neurons; also recorded: membrane depolarisation in the other neurone | 101.4 | −1.4 | 109.5±140.2 MΩ | 1.6±3.4 mV | around −65 mV | Input Resistance, mean in presence of peptide [1]: 338.1 MΩ; Membrane Potential, mean in presence of peptide [1]: −52.3 mV; ΔIR, change in neuronal input resistance [1]: 109.5 MΩ; ΔVm, change in membrane potential [1]: 1.6 mV
3 | SCRARPVESSC (listed as Homo sapiens) [LAT9993 SLoop A4, peptide variant of formula (I)] | suppressed | 294.6±40.7 MΩ | −53.3±5.1 mV | 78.3 | 21.7 | membrane hyperpolarisation and inhibition of activity in 1 neurone; also recorded: membrane depolarisation in 3 neurons | 107.7 | −7.7 | 103.1±55.5 MΩ | 4.2±3.1 mV |  | Input Resistance, mean in presence of peptide (listed as LAT9993 Sloop A4): 294.6 MΩ; Membrane Potential, mean in presence of peptide (listed as LAT9993 Sloop A4): −53.3 mV; effect on membrane potential and activity of dorsal horn neurons (listed as LAT9993 Loop A4): membrane hyperpolarisation and suppression of activity; dorsal root afferent-mediated EPSPs / synaptic inputs (words) (listed as LAT9993 Loop A4): suppressed dorsal root-evoked excitatory synaptic transmission; also recorded: partly suppressed; ΔIR, change in neuronal input resistance (listed as LAT9993 Sloop A4): 103.1 MΩ; ΔVm, change in membrane potential (listed as LAT9993 Sloop A4): 4.2 mV
4 | SCRSRPAESSC (listed as Homo sapiens) [LAT9993 SLoop A7, peptide variant of formula (I)] | suppressed dorsal root-evoked excitatory posts-synaptic potentials (EPSPs) in some neurons | 292.9±81.3 MΩ and 292.9 MΩ | −46.2±4.3 mV and −46.2 mV | 93.3 | 6.7 | membrane hyperpolarisation and inhibition of activity in 1 neurone; also recorded: membrane depolarisation in 1 neurone; also recorded: no effect on membrane potential in the remaining neurone | 95.3 | 4.7 | 22.8±59.8 MΩ and 22.8 MΩ |  | around −90 mV | effect on membrane potential and activity of dorsal horn neurons (listed as LAT9993 Loop A7): membrane depolarisation; dorsal root afferent-mediated EPSPs / synaptic inputs (words) (listed as LAT9993 Loop A7): suppressed dorsal root afferent-mediated excitatory synaptic inputs; also recorded: partly suppressed
5 | SCRSRPVEASC (listed as Homo sapiens) [LAT9993 SLoop A9, peptide variant of formula (I)] | little effect | 243.1±54.4 MΩ and 243.1 MΩ | −45.6±11.2 mV and −45.6 mV | 134.0 | −34.0 |  | 76.9 | 23.1 |  |  | no obvious reversal potentials | dorsal root-evoked IPSPs: little effect; effect on membrane potential and activity of dorsal horn neurons (listed as LAT9993 Loop A9): membrane depolarisation in all neurons; dorsal root afferent-mediated EPSPs / synaptic inputs (words) (listed as LAT9993 Loop A9): no obvious effect; also recorded: little effect
6 | SCRSRPVESAC (listed as Homo sapiens) [LAT9993 SLoop A10, peptide variant of formula (I)] | little effect | 452.3 MΩ | −56.8±5.6 mV and −56.8 mV | 99.3 | 0.7 |  | 101.2 | −1.2 | −8.5 MΩ | 0.7±1.2 mV and 0.7 mV |  | Input Resistance, mean in presence of peptide (listed as LAT9993 Loop A10): 452.3±197.1 MΩ; effect on membrane potential and activity of dorsal horn neurons (listed as LAT9993 Loop A10): membrane hyperpolarisation and inhibition of activity in 2 neurons; also recorded: membrane depolarisation in 1 neurone; also recorded: little effect on dorsal horn neurons; ΔIR, change in neuronal input resistance (listed as LAT9993 Loop A10): 8.5±26.5 MΩ
